Test results taken from ChEMBL document CHEMBL1157539, “Thousands of chemical starting points for antimalarial lead identification” (Nature, 2010).

Test system: Plasmodium falciparum
Assay: GSK_TCMDC: Inhibition of Plasmodium falciparum 3D7 in whole erythrocytes, using parasite LDH activity as an index of growth.
Type: functional, organism-based
Conditions: Plasmodium falciparum, 3D7

SMILES | XC50
O=[N+]([O-])c1ccc(Nc2nc(NCc3ccccc3)nc(N/N=C/c3ccccc3[N+](=O)[O-])n2)cc1 | 157 nM
Cc1cc(N/N=C/c2cccc([N+](=O)[O-])c2)c2ccccc2n1 | 728 nM
CCN(CC)CCCN(Cc1ccc(-c2ccc(C(F)(F)F)cc2)cc1)C(=O)Cn1c(SCc2cccc(F)c2F)cc(=O)c2ccccc21 | 1320 nM
CN1CCCc2ccc(NC(=O)c3cnc(-c4ccccc4)cn3)cc21 | 905 nM
CCc1cc(Cc2cnc(N)nc2N)cc(CC)c1OC | 1130 nM
OC(CNCc1ccccc1OCc1ccccc1)c1cccc(C(F)(F)F)c1 (configuration not stated) | 364 nM
Cc1ccc(NC(=O)c2cc(Br)cc(N3CCC(N(C)C)CC3)c2)cc1F | 840 nM
Cc1cccc2nc(-c3ccc(-c4ccc(CN5CCN(CCC#N)CC5)cc4)cc3)[nH]c12 | 864 nM
CCCC(C)NC(=O)[C@H](CC1CCCCC1)NC(=O)c1ccc(O)c(-c2cccc(C(F)(F)F)c2)c1 (some centres not stated) | 534 nM
COc1ccc(-c2cccc(NC(=O)c3cccc(C#N)c3)c2)cc1CN(C)CCN(C)C | 314 nM
COc1ccc(C(C(=O)NC2CCN(C[C@H](O)c3ccnc4ccc(OC)cc34)CC2)N2CCN(c3ccc([N+](=O)[O-])cc3)CC2)cc1 (some centres not stated) | 232 nM
CC(C)CNCc1ccc(-c2cccc(CN(C(=O)CCC3CCCC3)C3CCN(Cc4ccccc4)CC3)c2)cc1 | 799 nM
CCN1CCN(c2cc(C)c3cc(NC(=O)c4cccc(Cl)c4)ccc3n2)CC1 | 775 nM
Cc1cccc2nc(-c3ccc(-c4ccc(CN5CCN(C6CCN(C)CC6)CC5)cc4)s3)[nH]c12 | 145 nM
O=C(NCC(CCCN1CCC(c2c[nH]c3ccccc23)CC1)c1ccccc1)Nc1ccc(Cl)c(Cl)c1 (configuration not stated) | 787 nM
CC(C)CNCc1cccc(-c2cccc(CN(CCCN3CCN(C)CC3)C(=O)/C=C/c3ccccc3)c2)c1 | 926 nM
C=CCN(c1nc(NC)nc(NCc2c(OC)cccc2OC)n1)C1CCCC1 | 1460 nM
COc1cc(OC)c(NC(=O)C2c3ccccc3C(=O)N(CC(C)C)C2c2cccs2)cc1Cl (configuration not stated) | 46.4 nM
CC(C)C[C@H](Nc1ccnc(NCC2CCCCC2)n1)C(=O)NCCOc1ccccc1 | 1020 nM
N[C@@H](Cc1cc(I)c(Oc2ccc(O)c(Cl)c2)c(I)c1)C(=O)O | 993 nM
O=C(/C=C/c1ccc(Cl)c(Cl)c1)NCCCCCN1CCC(NC(=O)c2cccc(Cl)c2)CC1 | 687 nM
COCCN(CCOC)c1ncc(-c2ccsc2)c(-c2nc(C)c(C)s2)n1 | 843 nM
COc1cccc(C(=O)NCc2cccs2)c1OCc1ccccc1 | 921 nM

SMILES | XC50
CCc1ccccc1N1CCN(CCCCNC(=O)c2ccc(NC(=O)c3ccc(Cl)cc3)cc2)CC1 | 960 nM
O=C(COc1ccccc1Cc1ccccc1)Nc1cc(Cl)ccc1-n1cncn1 | 640 nM
Cc1ccc(NC(=O)c2ccc(N3CCN(c4ccncc4)CC3)cc2)cc1F | 736 nM
c1cc(CNC2CCCC2)cc(-c2ccc(CNc3ccc4ncccc4c3)cc2)c1 | 773 nM
CC1(C)N=C(N)N=C(N)N1c1ccc([N+](=O)[O-])cc1 | 234 nM
N#Cc1cccc(C(=O)Nc2ccc(-c3cccc(CN4CCC(O)CC4)c3)cc2)c1 | 995 nM
O=C(CCc1ccccc1)N[C@H](Cc1c[nH]c2ccccc12)C(=O)N1CCC(NCc2ccc3c(c2)Cc2ccccc2-3)CC1 | 910 nM
CN1CCC(C(=O)Nc2cccc(-c3ccc(-c4nc5cc(C(F)(F)F)ccc5[nH]4)cc3)c2)CC1 | 675 nM
CC[C@H]1CN2CCc3cc(OC)c(OC)cc3[C@@H]2C[C@@H]1C[C@H]1NCCc2c1cc(OC)c(O)c2Cl | 144 nM
CS(=O)(=O)c1ccc(CCNCc2ccc(-c3ccc(CN(C(=O)c4cccc(C#N)c4)C4CCN(Cc5ccccc5)CC4)cc3)nc2)cc1 | 977 nM
CCOC(=O)NC1=NC(C)(C)N(OCCCOc2cc(Cl)c(Cl)cc2Cl)C(NC(=O)OCC)=N1 | 31.2 nM
O=C(c1ccc(-c2cnc3[nH]cc(-c4ccc(C(=O)N5CCOCC5)cc4)c3c2)cc1)N1CCOCC1 | 1000 nM
Nc1[nH]c2ccccc2c(=O)c1-c1nc2ccccc2s1 | 303 nM
O=C(Nc1cccc(-c2ccc(-c3nc4cc(C(F)(F)F)ccc4[nH]3)s2)c1)c1ccncc1 | 681 nM
CCN(CC)CCn1c(=N)n(CC(O)c2ccc(Cl)c(Cl)c2)c2ccccc21 (configuration not stated) | 785 nM
Cc1ccc(F)c(C(=O)Nc2cccc(-c3nn4ccccc4c3-c3ccnc(Nc4cccc(F)c4)n3)c2)c1F | 1050 nM
Cc1ccc(C(NC(=O)Cc2ccccc2)c2ccc3cccnc3c2O)cc1 (configuration not stated) | 623 nM
CC(C)CNCc1ccc(-c2cccc(CN(C(=O)NC3CCCCC3)C3CCN(Cc4ccccc4)CC3)c2)cc1 | 805 nM
CN(C)CCCc1cc2c(cc1Cl)CCN2C(=O)Nc1ccc(-c2ccncc2)c2ccccc12 | 1180 nM
COc1cccc2cc(C(=O)N[C@@H](CC(C)C)C(=O)N[C@H](C=NNC(=O)OC(C)(C)C)CC(C)C)oc12 | 905 nM
COc1cccc(OC(C)(C)c2nc(N[C@@H](C)c3ccccc3)c3cn[nH]c3n2)c1 | 968 nM
COc1ccc2nccc([C@@H](O)CN3CCC(NC(=O)c4ccc(-c5ccc(C#N)cc5)cc4)CC3)c2c1 | 164 nM
CCC1CN2CCc3c([nH]c4ccccc34)[C@@H]2C[C@@H]1CC1NCCc2cc(OC)c(OC)cc21 (some centres not stated) | 865 nM

SMILES | XC50
O=C(Nc1ccc(-c2nc3ccccc3[nH]2)cc1)c1ccc(N2CCOCC2)c([N+](=O)[O-])c1 | 794 nM
O=C(Nc1ccc(Cl)cc1F)NC1CCN(CCCCCNC(=O)C2CC2c2ccc(Cl)c(Cl)c2)CC1 (configuration not stated) | 510 nM
Cc1cccc2nc(-c3cccc(-c4cccc(NC(=O)Nc5ccccc5)c4)c3)[nH]c12 | 139 nM
CC(C)CCNC(=N)Nc1ccc(OCCCOc2ccc(NC(=N)NCCC(C)C)cc2)cc1 | 200 nM
CN1CC[C@@H](Oc2cc(CNC(=O)c3ccc(-c4ccc(Cl)cc4)s3)ccc2C(F)(F)F)C1 | 1030 nM
Cc1cccc(CNc2nc(C)cc(N[C@@H](Cc3ccccc3)C(=O)NCCc3ccccc3)n2)c1 | 673 nM
COc1cccc(-c2cnc(N)c(-c3nc4cc(Cl)c(F)cc4[nH]3)c2)c1 | 536 nM
O=C(Cc1ccc[n+]([O-])c1)Nc1ccc(-c2cccc(-c3nc4cc(C(F)(F)F)ccc4[nH]3)c2)cc1 | 882 nM
Cc1ccc(NC(=O)c2cccc(CN3CCCN(Cc4cccc(O)c4)CC3)c2)cc1F | 705 nM
Cc1cccc2nc(-c3ccc(-c4ccc(CN5CCC(C(N)=O)CC5)cc4)cc3)[nH]c12 | 932 nM
COc1cc(C2CCN(CCCCNC(=O)c3ccc(NC(=O)c4ccc(Cl)c(Cl)c4)cc3)CC2)ccc1OC(C)C | 316 nM
CS(=O)(=O)c1cc2c(Nc3ccc(N4CCOCC4)cc3)c(C(N)=O)cnc2cc1Br | 249 nM
Cc1cccc2c3c([nH]c12)C1(CCN(Cc2ccccc2)CC1)NC(C(=O)NCc1ccccc1)C3 (configuration not stated) | 1370 nM
COc1ccc2nccc([C@@H](O)CN3CCC(NC(=O)C(c4cc5ccccc5o4)N4CCC(Cc5ccccc5)CC4)CC3)c2c1 (some centres not stated) | 247 nM
C=C[C@]1(C)C[C@@H](OC(=O)c2n[nH]c3ccccc3c2=O)[C@]2(C)[C@H](C)CC[C@]3(CCC(=O)[C@H]32)[C@@H](C)[C@@H]1O | 670 nM
COc1ccc(NC(=O)Nc2cc(C)nc3ccccc23)cc1Cl | 688 nM
CCCCC(CCCC)CN1C(=O)C(c2ccccc2)(c2ccccc2)N=C1N | 182 nM
O=C(NCCCCN1CCC(c2ccc([N+](=O)[O-])cc2)CC1)c1ccc(NC(=O)c2ccc(Cl)cc2)cc1 | 757 nM
CCc1ccc(NC(=O)c2ccc(CN3CCCN(Cc4cccc(C)c4)CC3)cc2)cc1 | 1130 nM
Cc1cc(F)ccc1Oc1nc(Nc2ccc(N3CCOCC3)c(F)c2)nc2c1S(=O)(=O)CCC2 | 462 nM
CCNC[C@@H](O)[C@H](Cc1ccccc1)NC(=O)c1cc2c3c(c1)c(CC)cn3CCS(=O)(=O)N2C | 810 nM
CC(=O)CSC(C=Cc1ccc(N(C)C)cc1)=Nc1ccccc1 | 1120 nM
COc1ccc(-c2ccccc2OCCCNc2nc(NCCc3ccc(O)cc3)nc(N3CCNCC3)n2)cc1 | 785 nM

SMILES | XC50
c1ccc(Oc2ccc(Nc3ccnc4cc(-c5ccc(CN6CCNCC6)o5)ccc34)cc2)nc1 | 243 nM
O=S(=O)(NCCN1CCCC1)c1ccc(-c2ccc(CNCc3ccsc3)cc2)cc1 | 853 nM
O=C(NCCCCN1CCC(c2ccc3c(c2OCCN2CCCC2=O)CCCC3)CC1)c1ccc(-c2ccc(C(F)(F)F)cc2)cc1 | 1520 nM
CCOC(=O)c1nc(-c2ccc(-c3ccccc3)cc2)[nH]c1N | 422 nM
Cc1cc(N2CCCC2)nc(Nc2ccc(NC(=O)c3ccco3)cc2)n1 | 842 nM
Cc1noc(C)c1-c1ccc(C(=C2CCCCCCC2)c2ccc(O)cc2)cc1 | 1050 nM
CCn1c2ccccc2c2cc(C=NN=c3cc(C)[nH]c4ccccc34)ccc21 | 309 nM
CCNc1cc(C(=O)N[C@@H](Cc2ccccc2)[C@H](O)CNC2(C(C)C)CCC2)cc(N2CCCCS2(=O)=O)c1 | 685 nM
COc1cc2ncnc(Nc3ccc(OCc4ccccc4)c(C(F)(F)F)c3)c2cc1OC | 253 nM
O=C(CC1NC(=O)c2ccccc21)Nc1ccc(-c2cccc(-c3nc4cc(C(F)(F)F)ccc4[nH]3)c2)cc1 (configuration not stated) | 958 nM
c1cc(CNC2Cc3ccccc3C2)cc(-c2cnc(N3CCNCC3)nc2)c1 | 943 nM
Cc1ccc(CNC(=O)[C@H](CCCN)Nc2nc(Nc3ccccc3)ncc2C)cc1 | 1530 nM
CN(C)C(=O)c1ccc(CN(Cc2cccc(OC(C)(C)C)c2)Cc2ccc3c(c2)OCCO3)cc1 | 571 nM
O=C(Nc1ccc(Cl)c(-c2nc3ccccc3[nH]2)c1)c1ccc(-c2ccc(Cl)cc2)o1 | 785 nM
FC(F)(F)c1ccc2[nH]c(-c3ccc(-c4cccc(CN5CCN(c6ccncc6)CC5)c4)cc3)nc2c1 | 118 nM
N#Cc1cc(C(=O)c2cc(Br)ccc2O)cn(-c2cc(Cl)cc(Cl)c2)c1=O | 879 nM
C[C@H](NC(=O)c1c(CN2CCN(C(=O)C(C)(C)C)CC2)c(-c2cccs2)nc2ccccc12)C1CCCCC1 | 1180 nM
CCn1c(SCC(=O)Nc2cc(C(F)(F)F)ccc2Cl)nc2ccccc2c1=O | 397 nM
COc1ccc(CNc2nc(Nc3cccc(C#N)c3)nc(Nc3cccc(C#N)c3)n2)cc1Cl | 179 nM
CC(CC(=O)NCC1(c2ccc(F)cc2Cl)CCOCC1)C(=O)c1ccc(Cl)cc1 (configuration not stated) | 856 nM
Cc1cc(N[C@@H](CC(C)C)C(=O)NC2CCCC2)nc(NCC2CCCCC2)n1 | 858 nM
CCN1C(=O)C(=NN=C(S)N2CCCC2)c2ccccc21 | 1000 nM
CN1CCN(CCCN(Cc2ccc(-c3ccc(CNCCc4ccccc4)cc3)cc2)C(=O)c2cccs2)CC1 | 1430 nM
